Data: article PMC9203742 (Nature Communications, 2022)
Several values for one entry are separate records, joined by “and”; a condition that tells them apart may be missing. Identical values can stand only once.

Key:
[1] = target: T1, cell-surface mGlu1 in cerebellar slices of mGlu1^CBC/CBC mice (Mus musculus, UniProt P97772, N264H); assay: Confocal live imaging of cell-surface mGlu1 with FITM-Cy3 in acute cerebellar slices, mGlu1^CBC/CBC; assay type: binding
T1 construct: from tissue; host or cells: acute cerebellar slices of homozygous mGlu1(N264H) knock-in (mGlu1CBC/CBC) mice
Procedure: (§1) Sagittal cerebellar slices were cut with a microslicer (Linear slicer Pro7; DOSAKA EM) in cutting solution buffer and then incubated in ACSF gassed with 5% CO2 and 95% O2 at room temperature.
(§2) The cerebellar slices prepared from mGlu1^+/+ or mGlu1^CBC/CBC mice, were incubated with 10 nM FITM-Cy3 and 10 µg/mL Hoechst33342 for 30 min at room temperature in a humidified atmosphere of 5% CO2 and 95% O2. As a negative control, the cerebellar slices were incubated with 10 nM FITM-Cy3, 10 µg/mL Hoechst33342, and 500 nM FITM. Then, the slices were subjected to confocal live imaging using a confocal microscope (LSM900, Carl Zeiss). The fluorescence intensity of Cy3 at the molecular layer were quantified by ZEN blue software (Carl Zeiss).

[2] = target: T2, cell-surface mGlu1 in cerebellar slices of mGlu1^+/+ mice (Mus musculus, UniProt P97772); assay: Confocal live imaging of cell-surface mGlu1 with FITM-Cy3 in acute cerebellar slices, mGlu1^+/+; assay type: binding
T2 construct: from tissue; host or cells: acute cerebellar slices of mGlu1+/+ (C57BL/6J) mice
Procedure: as §1, §2

mGlu1(N264H) mutant = target: T3, mGlu1(N264H) mutant (Rattus norvegicus, UniProt P23385, N264H); assay: Fura-2 Ca2+ imaging in HEK293 cells expressing mGlu1(N264H); assay type: cell-based; conditions: 10 µM LY367385, 1 µM FITM, 10 µM YM254890 or 1 µM U73122
T3 construct: expressed in transfected cells; host or cells: HEK293

primary cortical neurons = assay: Fura-2 Ca2+ imaging (abnormal Ca2+ response) in cultured cortical neurons; conditions: co-treated 30 µM LY367385, 1 µM FITM or 10 µM U73122
[3] = 10 nM FITM-Cy3 with excess (500 nM) FITM
[4] = mGlu1CBC/CBC, relative to Ave of mGlu1+/+ FITM (-) = 1
[5] = mGlu1+/+, relative to Ave of mGlu1+/+ FITM (-) = 1

T1 sequence (P97772 19-1199 N264H limits assumed): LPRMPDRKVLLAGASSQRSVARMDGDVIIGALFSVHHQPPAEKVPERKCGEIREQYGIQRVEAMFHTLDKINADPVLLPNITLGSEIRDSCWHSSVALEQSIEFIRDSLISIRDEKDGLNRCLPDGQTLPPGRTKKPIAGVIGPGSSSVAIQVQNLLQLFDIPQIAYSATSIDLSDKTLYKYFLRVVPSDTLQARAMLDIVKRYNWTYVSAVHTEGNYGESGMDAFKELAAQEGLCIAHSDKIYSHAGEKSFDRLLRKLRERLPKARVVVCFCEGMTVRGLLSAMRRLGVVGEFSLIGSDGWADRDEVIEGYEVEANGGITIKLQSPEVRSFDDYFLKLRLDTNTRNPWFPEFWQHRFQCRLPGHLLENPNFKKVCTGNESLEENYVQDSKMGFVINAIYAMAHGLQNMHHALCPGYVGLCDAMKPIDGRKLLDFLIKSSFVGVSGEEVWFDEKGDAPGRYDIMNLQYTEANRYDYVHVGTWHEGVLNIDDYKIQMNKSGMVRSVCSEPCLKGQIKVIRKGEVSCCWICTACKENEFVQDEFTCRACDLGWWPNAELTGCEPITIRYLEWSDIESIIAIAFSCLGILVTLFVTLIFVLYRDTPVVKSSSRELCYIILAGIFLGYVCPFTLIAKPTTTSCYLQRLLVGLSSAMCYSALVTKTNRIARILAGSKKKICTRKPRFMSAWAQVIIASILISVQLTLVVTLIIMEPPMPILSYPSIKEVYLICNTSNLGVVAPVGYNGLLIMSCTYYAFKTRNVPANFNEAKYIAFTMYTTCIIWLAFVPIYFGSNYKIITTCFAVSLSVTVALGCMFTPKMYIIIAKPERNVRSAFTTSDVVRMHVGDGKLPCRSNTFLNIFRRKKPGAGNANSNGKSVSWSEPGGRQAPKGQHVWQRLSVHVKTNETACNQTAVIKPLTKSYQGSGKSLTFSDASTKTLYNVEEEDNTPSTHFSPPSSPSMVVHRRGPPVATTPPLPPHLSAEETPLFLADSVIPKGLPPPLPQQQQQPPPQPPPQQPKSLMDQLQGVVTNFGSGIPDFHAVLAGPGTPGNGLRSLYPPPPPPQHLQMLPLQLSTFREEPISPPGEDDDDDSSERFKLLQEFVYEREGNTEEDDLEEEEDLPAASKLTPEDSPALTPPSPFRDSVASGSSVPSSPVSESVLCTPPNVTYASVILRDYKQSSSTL
T2 sequence (P97772 19-1199 limits assumed): as the sequence (P97772 19-1199 N264H limits assumed) above, with H246N counted along it
T3 sequence (P23385 19-1199 N264H): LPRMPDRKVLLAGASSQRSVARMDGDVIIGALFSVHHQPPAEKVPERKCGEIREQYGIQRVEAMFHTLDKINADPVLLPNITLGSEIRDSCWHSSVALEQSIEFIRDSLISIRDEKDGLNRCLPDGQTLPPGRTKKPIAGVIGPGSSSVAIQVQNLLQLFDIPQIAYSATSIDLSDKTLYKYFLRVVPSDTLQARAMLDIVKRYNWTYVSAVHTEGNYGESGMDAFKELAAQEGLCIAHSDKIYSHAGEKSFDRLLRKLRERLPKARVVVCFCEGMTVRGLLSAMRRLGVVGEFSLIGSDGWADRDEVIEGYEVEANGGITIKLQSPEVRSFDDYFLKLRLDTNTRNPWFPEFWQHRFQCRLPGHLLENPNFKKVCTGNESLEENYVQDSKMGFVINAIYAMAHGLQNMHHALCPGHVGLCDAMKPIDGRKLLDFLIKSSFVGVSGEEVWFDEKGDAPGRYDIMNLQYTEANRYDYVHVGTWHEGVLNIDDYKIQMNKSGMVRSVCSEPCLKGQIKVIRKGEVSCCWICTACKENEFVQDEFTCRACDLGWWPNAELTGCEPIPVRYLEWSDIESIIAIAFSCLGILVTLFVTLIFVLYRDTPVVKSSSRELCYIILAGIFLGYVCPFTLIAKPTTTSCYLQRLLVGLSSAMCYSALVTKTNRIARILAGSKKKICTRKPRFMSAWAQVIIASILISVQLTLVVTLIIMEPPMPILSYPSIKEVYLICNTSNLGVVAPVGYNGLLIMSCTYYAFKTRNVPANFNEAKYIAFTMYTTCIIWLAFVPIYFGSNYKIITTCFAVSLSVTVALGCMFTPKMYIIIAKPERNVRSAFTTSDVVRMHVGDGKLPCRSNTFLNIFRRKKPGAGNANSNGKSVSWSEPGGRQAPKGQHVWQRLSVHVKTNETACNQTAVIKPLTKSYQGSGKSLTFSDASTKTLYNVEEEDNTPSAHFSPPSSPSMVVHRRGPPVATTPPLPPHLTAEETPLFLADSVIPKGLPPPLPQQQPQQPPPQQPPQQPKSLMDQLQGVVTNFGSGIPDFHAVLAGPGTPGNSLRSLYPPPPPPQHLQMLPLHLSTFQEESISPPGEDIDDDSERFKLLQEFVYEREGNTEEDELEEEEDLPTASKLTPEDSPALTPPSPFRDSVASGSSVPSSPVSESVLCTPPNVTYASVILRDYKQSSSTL

Competition of FITM-Cy3 fluorescence in the molecular layer [1, 3]: disappearance of fluorescence
FITM-Cy3 signal with FITM (+), Ave (Fig.5d) [1, 4]: 0.1786
Competition of FITM-Cy3 fluorescence in the molecular layer [2, 3]: disappearance of fluorescence
FITM-Cy3 signal with FITM (+), Ave (Fig.5d) [2, 5]: 0.2072
Effect of pre-treated inhibitor on 10 µM Pd(bpy)-induced Ca2+ responses (mGlu1(N264H) mutant): inhibited
Structure (SMILES): CC(C)Nc1cc(-c2csc(N(C)C(=O)c3ccc(F)cc3)n2)ncn1 [FITM]
FITM-Cy3 signal with FITM (+), individual values #1-#5 (Fig.5d) [1, 4]: 0.1218 and 0.08484 and 0.2076 and 0.2159 and 0.2628
FITM-Cy3 signal with FITM (+), individual values #1-#5 (Fig.5d) [2, 5]: 0.08371 and 0.2036 and 0.1822 and 0.2639 and 0.3024
Effect of inhibitor on 30 µM Pd(bpy)-induced [Ca2+]i elevation (primary cortical neurons): suppressed by neither
